Values quoted from earlier work in patent publication US7970581B2, “Methods of calculating differences of binding affinities between congeneric pairs of ligands by way of a displaced solvent functional” (The Trustees of Columbia University in the City of New York, priority 2007, dated 2011).

Molecular target: factor Xa (Homo sapiens, UniProt P00742)
Conditions: experimental binding free energy of crystal structure ligand

Chain of factor Xa (P00742 235-488 limits assumed): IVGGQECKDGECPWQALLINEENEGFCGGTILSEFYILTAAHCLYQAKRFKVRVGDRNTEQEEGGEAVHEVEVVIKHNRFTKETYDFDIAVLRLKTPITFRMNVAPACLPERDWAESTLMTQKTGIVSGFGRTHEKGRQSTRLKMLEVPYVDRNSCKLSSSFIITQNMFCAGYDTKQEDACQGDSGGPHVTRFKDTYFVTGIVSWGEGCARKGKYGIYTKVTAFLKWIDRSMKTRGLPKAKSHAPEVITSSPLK
Chain of factor Xa (P00742 41-179 partner limits assumed): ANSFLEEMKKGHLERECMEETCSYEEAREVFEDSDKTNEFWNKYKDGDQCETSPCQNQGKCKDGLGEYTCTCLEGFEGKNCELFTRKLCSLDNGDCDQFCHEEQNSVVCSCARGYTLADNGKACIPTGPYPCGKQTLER

In order of rising ΔGexp:
1. COc1cc(Cl)cc(C(=O)Nc2ccc(Cl)cn2)c1NC(=O)c1scc(C/[N+](C)=C2\NCCO2)c1Cl [1MQ6:XLD]  -15.22 kcal/mol
2. CN1CCN(Cc2csc(C(=O)Nc3ccc(Cl)cc3C(=O)Nc3ccc(Cl)cc3)c2Cl)CC1 [1MQ5:XLC]  -12.28 kcal/mol
3. N=C(N)c1ccc(CN2CCN(S(=O)(=O)c3cc4ccc(Cl)cc4s3)CC2=O)cc1 [1NFY:RTR]  -12.12 kcal/mol
4. CC(C)N1CCC(NC(=O)c2cc3ccccc3n2-c2cc(-c3ccc(Cl)s3)on2)CC1 [2BOH:IIA]  -11.63 kcal/mol
5. CC(C)N1CCC(NC(=O)c2cc3ccccc3n2CC(=O)Nc2ccc(Cl)cc2)CC1 [2BQW:IIE]  -11.63 kcal/mol
6. Cc1cc(C)cc(CNC(=O)c2cc3c(C)cccc3n2Cc2cccc(C(=N)N)c2)c1 [1LQD:CMI]  -10.98 kcal/mol
7. COc1ccc(C(=O)NCC2CCN(c3ccncc3)CC2)cc1OCCc1cc(Cl)cc(Cl)c1 [2BMG:I1H]  -10.57 kcal/mol
8. Cc1nc2ccccc2n1Cc1ccc2c(c1)nc(CNc1ccc(C(=N)N)cc1)n2C [1G2M:R11]  -10.09 kcal/mol
9. CCOC(=O)CO/N=C(\c1ccccn1)C1(c2ccc3c(c2)nc(CNc2ccc(C(=N)N)cc2)n3C)CC1 [1G2L:T87]  -9.88 kcal/mol
10. COc1cccc(Cn2c(C(=O)NC3CCN(C(C)C)CC3)cc3ccccc32)c1 [2BQ7:IID]  -9.62 kcal/mol
